From patent US5670538A, “Use of prodelphinidins for obtaining medicaments intended for the treatment of arthrosis” (Laboratoires Dolisos, priority 1992, dated 1997)

Columns and labels:
[1] = Production of OH° hydroxyl radicals (gamma irradiation, KMB substrate, ethylene by gas chromatography); type: biochemical; settings: for % inhibition of the production of hydroxyl radicals: Substrate: KMB, relative to the controls
Procedure: 8. Production of OH° hydroxyl radicals
The products are dissolved in 10 ml flasks at the required concentration in phosphate buffer: 6.6.10^-2 M, pH 7.4 in the presence of alpha keto methiolbutyric acid (10^-3 M: KMB). After the flasks have been hermetically sealed, the samples are irradiated with gamma rays provided by a ^137 Cs source.
The OH° radicals produced by the gamma radiation react with the KMB to produce the ethylene detected by a gas chromatograph. The height of the ethylene peak is proportional to the quantity of free radicals formed in the medium (Weis et al., 1978).

[2] = Antilipoperoxidizing activity (gamma irradiation, linoleic acid substrate, pentane); type: biochemical; settings: for % inhibition of pentane release from linoleic acid (lipid peroxidation): Substrate: Linoleic acid, relative to the controls
Procedure: 9. Antilipoperoxidizing activity
Similar to the preceding anti-radical method but where the KMB is replaced by linoleic acid (C18: 2), the gamma radiation releases pentane which is analyzed. The height of the pentane peak is proportional to the quantity free of radicals formed in the medium.

ferricytochrome C = assay: Control experiments: direct reduction of ferricytochrome C by the product itself; type: biochemical; settings: effect not quantifiable
Text: This effect not being quantifiable, no conclusion can consequently be drawn on a possible inhibiting effect of these products on the production of the superoxide anion by the activated PMNs.

[3] = test system: human articular chondrocytes; assay: Radioimmunoassay of type II collagen (coll. II) produced in tridimensional culture of human chondrocytes; type: cell-based
Text: The model used for testing the proanthocyanidols, namely the tridimensional culture of human chondrocytes allows chondrorepair to be quantified by the production of matrix substances: type II collagen, proteoglycans, and chondroresorption by the reduction in the levels of prostaglandin E2 and of OH° and O°2 type free radicals produced.
1. Tridimensional culture of human chondrocytes
The technique used has been described in detail (Bassleer et al., 1986).
Briefly, human articular chondrocytes are cultivated in DMEM (Dulbecco's Modification of Eagle's Medium--ICN--Gand, Belgium) with either Ultroser G 1% (GIBCO, Gand, Belgium) or 10% of foetal calf serum (ICN--Gand--Belgium), and 50 μg of ascorbic acid/ml added to it. The cartilage originates from the apparently normal zone of heads of human femur suffering from arthrosis, immediately after an operation carried out to insert a total hip prosthesis; it can also originate from the head of a healthy femur, but which has undergone a traumatism and has had to be replaced. This cartilage is then digested by clostridial collagenase 1 mg/ml (Boehringer-Mannheim, Germany) in a buffer (NaCl 120 mM, CaCl2 1 mM, KCl 5 mM, KH2 PO4 1 mM, NaHCO3 25 mM, glucose 2 mM and Hepes 30 mM, pH 7.4) for 24 hours. After 6 successive washings and centrifugations, the chondrocytes, isolated from their matrix, are cultured in flasks (10^6 cells/2 ml of culture medium) placed on a gyrator (10 rpm). The cultures are kept at 37° C. in an atmosphere of air 95%-CO2 5% (Bassleer et al., 1986). Cultivated under these conditions, after 4 to 5 days the chondrocytes form a tridimensional cluster in each flask. These clusters, which at first have a flocculent appearance, then tend to condense during the culture. After two weeks, their diameter is, in general, from 1 to 2 mm.
The fresh weight of the clusters increases with the duration of the culture, above all during the few first days.
3. Radioimmunoassay of type II collagen (coll. II)
The method for the radioimmunoassay of coll. II has been described in detail (Henrotin et al., 1990). The coll. II is extracted from human articular cartilage according to the technique described by Herbage et al. (1977). The antiserum against coll. II was obtained from rabbits according to the technique of Vaitukaitis et al. (1971).
The assay is carried out by sequential saturation. In the first instance, the radioimmunoassay is carried out in a 0.3 ml volume consisting of 0.2 ml of incubation buffer (PBS-50 mM PO4, 300 mM NaCl, 5 g/l BSA (W/V), 6.7 mM sodium azide, pH 7.4) containing the reference coll. II (0.5 to 500 ng) or the sample to be assayed and 0.1 ml of anti-coll. II antiserum from guinea pigs diluted to 1/5000 (24 hours at 4° C.). In the second instance, 0.1 ml of ^125 I-coll. II tracer labelled according to the iodogenic technique (Salacynski et al., 1979 and diluted so as to obtain 20,000 cpm/0.1 ml) is added. After 24 hours at 4° C., the collagen-antibody complexes are separated from the free radioactive coll. II by the double antibody system (Franchimont et al. 1983). Sequential saturation gives a sensitivity of 3 ng/tube. The accuracy of the method is 10%. The coefficients of the intra- and inter assay variation are 10% and 20% respectively.
The assay is specific to human articular type II collagen.
No cross reaction is obtained with bovine collagen of type I, III or IV.
The culture media are stored at -20° C. in the presence of enzymatic inhibitors (Oegema et al., 1975). These media are assayed by the radio immunological method without any treatment beforehand. The chondrocyte clusters are washed and dissociated with ultrasonics according to the method described for the assay of the PGs. After centrifugation (1500 rpm, 10 minutes), the residue is extracted using 500 mM acetic acid under agitation for 24 hours at 4° C. The supernatant of the homogenate and the extract of the residue are mixed together and assayed after equilibration at pH 7.4 using 4M NaOH.
The recovery of coll. […]

Question: With `Oc1cc(O)c2c(c1)O[C@H](c1cc(O)c(O)c(O)c1)[C@@H](O)[C@@H]2c1c(O)cc(O)c2c1O[C@H](c1cc(O)c(O)c(O)c1)[C@@H](O)[C@@H]2c1c(O)cc(O)c2c1O[C@H](c1cc(O)c(O)c(O)c1)[C@@H](O)C2` [Substance Ic, GC-(4 alpha→8) GC-(4 a→8)-GC] as the compound, how does the “% inhibition of the production of hydroxyl radicals” value (from here on “% inhibition … of hydroxyl radicals”) ([1]; 10^-3 M) read?
Answer: The value was 74%.

Question: What about the “% inhibition … of hydroxyl radicals” value ([1]; 10^-4 M) of the same compound?
Answer: The value was 39%.

Question: What about the “% inhibition … of hydroxyl radicals” value ([1]; 10^-5 M) of the same compound?
Answer: Its value is 20%.

Question: What about the “Production of free radicals from KMB, effect in words” value ([1]; Table 22) of the same compound?
Answer: The value was “significantly inhibits”.

Question: What about the “% inhibition of pentane release from linoleic acid (lipid peroxidation)” value (“% inhibition of pentane release” below) ([2]; 10^-3 M) of the same compound?
Answer: The value was 91%.

Question: What about the “% inhibition of pentane release” value ([2]; 10^-4 M) of the same compound?
Answer: The value was 40%.

Question: What about the “% inhibition of pentane release” value ([2]; 10^-5 M) of the same compound?
Answer: The value was 0%.

Question: What about the “Production of free radicals from linoleic acid, effect in words” value ([2]; Table 23) of the same compound?
Answer: The value was “significantly inhibits”.

Question: What about the “Direct reduction of ferricytochrome C” value (ferricytochrome C) of the same compound?
Answer: The value was “powerful reducers of ferricytochrome C”.

Question: What about the “Average concentrations (m ± SD) of type II collagen in the clusters of chondrocytes at the end of 12 days of culture” value (shortened to “Average concentrations (m ± SD)”) ([3]; 1% Ultroser G, 1 μg/ml) of the same compound?
Answer: Its value is 81 ± 6 ng per μg of DNA.

Question: And the “Collagen II in the clusters over 12 days, effect in words” value ([3]; 1% Ultroser G, 1 μg/ml)?
Answer: Its value is “stimulant”.

Question: What about the “Cumulative release of coll.II over 12 days, Abs” value ([3]; 1% Ultroser G, 1 μg/ml) of the same compound?
Answer: The value was 256 ng/μg DNA/12 days.

Question: And the “Type II collagen released in the culture medium, effect in words” value ([3]; 1% Ultroser G, 1 μg/ml)?
Answer: The value was “significant effect”.

Question: And the “Average concentrations (m ± SD)” value ([3]; 1% Ultroser G, 10 μg/ml)?
Answer: The value was 94 ± 7 ng per μg of DNA.

Question: What about the “Cumulative release of coll.II over 12 days, Abs” value ([3]; 1% Ultroser G, 10 μg/ml) of the same compound?
Answer: Its value is 292 ng/μg DNA/12 days.

Question: And the “Average concentrations (m ± SD)” value ([3]; 1% Ultroser G, 100 μg/ml)?
Answer: The value was 121 ± 13 ng per μg of DNA.

Question: What about the “Cumulative release of coll.II over 12 days, Abs” value ([3]; 1% Ultroser G, 100 μg/ml) of the same compound?
Answer: Its value is 337 ng/μg DNA/12 days.

Question: And the “Coll. II released in the culture medium” value ([3]; 1% Ultroser G, culture time 0-4 days, 1 μg/ml)?
Answer: The value was 149.4 ± 8.7 ng/μg DNA/96 h.

Question: What about the “Coll. II released in the culture medium” value ([3]; 1% Ultroser G, culture time 0-4 days, 10 μg/ml) of the same compound?
Answer: Its value is 162 ± 11 ng/μg DNA/96 h.

Question: And the “Coll. II released in the culture medium” value ([3]; 1% Ultroser G, culture time 0-4 days, 100 μg/ml)?
Answer: The value was 182 ± 5.6 ng/μg DNA/96 h.

Question: And the “Coll. II released in the culture medium” value ([3]; 1% Ultroser G, culture time 0-8 days (so in the source), 1 μg/ml)?
Answer: Its value is 65.8 ± 7.4 ng/μg DNA/96 h.

Question: And the “Coll. II released in the culture medium” value ([3]; 1% Ultroser G, culture time 0-8 days (so in the source), 10 μg/ml)?
Answer: Its value is 70.5 ± 7.1 ng/μg DNA/96 h.

Question: And the “Coll. II released in the culture medium” value ([3]; 1% Ultroser G, culture time 0-8 days (so in the source), 100 μg/ml)?
Answer: Its value is 93.8 ± 10.5 ng/μg DNA/96 h.

Question: And the “Coll. II released in the culture medium” value ([3]; 1% Ultroser G, culture time 0-12 days (so in the source), 1 μg/ml)?
Answer: Its value is 41.2 ± 4.6 ng/μg DNA/96 h.

Question: What about the “Coll. II released in the culture medium” value ([3]; 1% Ultroser G, culture time 0-12 days (so in the source), 10 μg/ml) of the same compound?
Answer: Its value is 50.6 ± 4.2 ng/μg DNA/96 h.

Question: And the “Coll. II released in the culture medium” value ([3]; 1% Ultroser G, culture time 0-12 days (so in the source), 100 μg/ml)?
Answer: Its value is 61.1 ± 5.2 ng/μg DNA/96 h.

Question: And the activity at 1 µg/mL ([3]; Homo sapiens, Chondrocyte, 288 h, 1% Ultroser G, 1 μg/ml, control = 100, read-out: Cumulative release of coll.II over 12 days, %)?
Answer: The activity at 1 µg/mL was 134%.

Question: And the activity at 10 µg/mL ([3]; Homo sapiens, Chondrocyte, 288 h, 1% Ultroser G, 10 μg/ml, control = 100, read-out: Cumulative release of coll.II over 12 days, %)?
Answer: Its activity at 10 µg/mL is 153%.

Question: What about the activity at 100 µg/mL ([3]; Homo sapiens, Chondrocyte, 288 h, 1% Ultroser G, 100 μg/ml, control = 100, read-out: Cumulative release of coll.II over 12 days, %) of the same compound?
Answer: The activity at 100 µg/mL was 176%.

Question: What about the “Type II collagen in the culture media, effect in words” value ([3]; foetal calf serum, 10 and 100 μg/ml) of the same compound?
Answer: Its value is “increases”.

Question: What about the “Coll. II released in the culture medium” value ([3]; foetal calf serum, Table 18, 0-4 days, 10 μg/ml) of the same compound?
Answer: The value was 44.1 ± 6.98 ng/μg DNA/96 H.

Question: What about the “Coll. II released in the culture medium” value ([3]; foetal calf serum, Table 18, 0-4 days, 100 μg/ml) of the same compound?
Answer: The value was 70.7 ± 10.3 ng/μg DNA/96 H.

Question: What about the “Coll. II released in the culture medium” value ([3]; foetal calf serum, Table 18, 4-8 days, 10 μg/ml) of the same compound?
Answer: Its value is 33.5 ± 3.71 ng/μg DNA/96 H.

Question: What about the “Coll. II released in the culture medium” value ([3]; foetal calf serum, Table 18, 4-8 days, 100 μg/ml) of the same compound?
Answer: The value was 41.7 ng/μg DNA/96 H.

Question: What about the “Coll. II released in the culture medium” value ([3]; foetal calf serum, Table 19, 0-4 days, 10 μg/ml) of the same compound?
Answer: Its value is 37.9 ± 5.47 ng/μg DNA/96 H.

Question: What about the “Coll. II released in the culture medium” value ([3]; foetal calf serum, Table 19, 0-4 days, 100 μg/ml) of the same compound?
Answer: The value was 53.2 ± 4.21 ng/μg DNA/96 H.

Question: What about the “Coll. II released in the culture medium” value ([3]; foetal calf serum, Table 19, 4-8 days, 10 μg/ml) of the same compound?
Answer: Its value is 23.3 ± 2.11 ng/μg DNA/96 H.

Question: And the “Coll. II released in the culture medium” value ([3]; foetal calf serum, Table 19, 4-8 days, 100 μg/ml)?
Answer: The value was 33.5 ng/μg DNA/96 H.

Question: And the “Coll. II in the clusters” value ([3]; foetal calf serum, experiment 397, 4-8 days, 10 μg/ml)?
Answer: Its value is 85.9 ± 14.45 ng/μg DNA.

Question: And the “Coll. II in the clusters” value ([3]; foetal calf serum, experiment 397, 4-8 days, 100 μg/ml)?
Answer: The value was 109.8 ng/μg DNA.

Question: And the “Collagen II in the clusters, effect in words” value ([3]; foetal calf serum, experiment 397, 10 and 100 μg/ml)?
Answer: Its value is “An increase in collagen II is observed”.
